From article PMC5441580, “GPR40 partial agonist MK-2305 lower fasting glucose in the Goto Kakizaki rat via suppression of endogenous glucose production” (PLoS ONE, 2017)
pEC50: −log10 of the molar value. Several values for one entry are separate records, joined by “and”; a condition that tells them apart may be missing. Equal entries are not always repeated.

Tests used:
Rat PPARγ = biological target: T1, Rat PPARγ (Rattus norvegicus, UniProt O88275); assay: cell-based nuclear receptor profiling (Indigo Biosciences), PPARγ
T1 sequence (O88275 238-505 limits assumed): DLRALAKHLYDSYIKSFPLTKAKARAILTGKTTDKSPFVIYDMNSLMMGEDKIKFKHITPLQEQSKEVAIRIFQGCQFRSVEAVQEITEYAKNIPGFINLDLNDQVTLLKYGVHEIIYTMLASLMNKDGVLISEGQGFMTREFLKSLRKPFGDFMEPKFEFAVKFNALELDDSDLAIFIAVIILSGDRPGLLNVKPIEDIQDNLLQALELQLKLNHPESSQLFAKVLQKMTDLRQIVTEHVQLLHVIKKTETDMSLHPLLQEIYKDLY
Method: Rat PPARα, PPARδ, and PPARγ activities were determined by Indigo Biosciences (State College, PA) cell-based nuclear receptor profiling service.

[1] = plasma exposure of the compounds on day 14 of the chronic study; format: in vivo, rat; settings: day 14, similar at fed and fasted time points, GK rats
Method: At the start of the study, fed glucose was measured at 8 A.M., and animals were selected and sorted into treatment groups based on ambient glucose (n = 10/male GK group, n = 6/male WKY control group). Animals were then placed on diet (LabDiet # 5001) that contained, or was devoid of, compound at the daily doses indicated. Fed blood glucose, food intake, and body weights were determined on days 0, 1, 3, 7, and 14 of study at 8 A.M. On days 7 and 14, food was removed for 5 h and plasma glucose was measured. Percent inhibitions were calculated as the percent reduction of blood glucose from the average value for vehicle controls. On day 14, blood was collected from the tail vein (20 μl) after the morning glucose measurement and after 5 h fast from a subset of n = 3 rats per treatment group to determine the ambient and fasted exposure of the compounds in circulation. The blood was stored at 4°C in 0.1 M sodium monocitrate for subsequent analysis. Animals were then re-fed their respective diet treatments. On day 20 of treatment at 8 A.M., blood glucose was measured and then animals were euthanized via CO2 asphyxiation. Blood and liver tissue were sampled, processed, and stored at -80°C until analysis.

pEC50 (Rat PPARγ): < 5.00 | % Activation (Rat PPARγ; @ 10 μM): 3.1 @ 10 μM % and 3.1% | % Effect (Rat PPARγ; Dose 0.309 nM): -0.11% | % Effect (Rat PPARγ; Dose 0.981 nM): -0.11% | % Effect (Rat PPARγ; Dose 3.11 nM): -0.19% | % Effect (Rat PPARγ; Dose 9.85 nM): -0.3% | % Effect (Rat PPARγ; Dose 31.2 nM): -0.25% | % Effect (Rat PPARγ; Dose 99 nM): -0.14% | % Effect (Rat PPARγ; Dose 314 nM): -0.37% | % Effect (Rat PPARγ; Dose 995 nM): -0.13% | % Effect (Rat PPARγ; Dose 3155 nM): 0.6% | % Effect (Rat PPARγ; Dose 10000 nM): 3.1% | plasma exposure ([1]; 10 mg/kg in feed): ~ 15 μM | plasma exposure ([1]; 30 mg/kg in feed): ~ 39 μM
Structure (SMILES): O=C1NC(=O)C(C2CCOc3cc(Oc4ccc(C(F)(F)F)cc4Cl)ccc32)S1 (centres unmarked) [MK-2305]
